This is an account of results in patent US11351147B2, “Short syntheses of (−)-picrotoxinin and related compounds” (The Scripps Research Institute, priority 2020, dated 2022).

Data set [1] can be described thus: Hydrolytic stability study in pH 8 phosphate buffer (NMR monitoring). Format: physicochemical. The note with it: for Concentration over Time: 100 mM phosphate buffer pH=8 (D2O); for ln of concentration: pH=8 buffer. The protocol: In separate 5 mm NMR tubes, picrotoxinin (1, 1 mg) or 5-methyl picrotoxinin (20, 1 mg) were dissolved in 1 mL of 100 mM phosphate buffer (pH=8, prepared with D20). Spectra were acquired at 0, 6, 12, 24, 36, 48, 60, 72, 84, 96, and 120 h. and monitored for the amount of hydrolysis product (Table 1).

In another data set the target is Rat GABAA Ion Channel. Put plainly: Non-selective Rat GABAA Ion Channel [3H] TBOB Binding (Antagonist Radioligand) Assay. The note with it: displacement of [3H] TBOB, rat cerebral cortex GABAA receptors. The protocol: A Non-selective Rat GABAA Ion Channel [3H] TBOB Binding (Antagonist Radioligand) Assay (Catalog #3817) was conducted by Eurofins Pharma Discovery Service of Eurofins Cerep, France. The assay is based on these publications: Lewin, A. H. et al. Mol. Pharmacol. 1989, 35, 189, and Schwartz, R. D.; Mindlin, M. C. J. Pharmacol. Exp. Ther. 1987, 244, 963.
Compound binding was calculated as a percentage inhibition of the binding of the radioactive ligand [3H] TBOB (t-[3H]Butylbicycloorthobenzoate) for RAT GABAA Ion Channels.
A 20.0 mM stock solution was prepared in DMSO from pure solid 5-methyl-picrotoxinin (20) to evaluate radioligand displacement of [3H] TBOB from rat cerebral cortex GABAA receptors at final concentrations of 200 μM, 63 μM, 20 μM, 6.3 μM, 2.0 μM, and 0.6 μM.
On the technique in general: Displacement assays read how much labelled ligand stays bound in the presence of the test substance.

The subject of another data set is mice. The following applies: cited from earlier work.

The term IC50 denotes the midpoint of a concentration-inhibition curve. High values mean weaker potency, low ones greater potency. Usually Ki stands for the equilibrium dissociation constant of an inhibitor or competing ligand from its target.

“And” between values parts separate entries of the source, which are not always exact repeats. Equal entries are not always repeated.

For the compound `C=C(C)C1C2OC(=O)C1(C)C1(O)C[C@H]3O[C@]34C(=O)OC2C14C` (stereo partly drawn) [compound 20, 5-methylpicrotoxinin], the “Concentration over Time” value in data set [1] (0 h) came to 3270 µM; in data set [1] (6 h), 3000 µM; in data set [1] (12 h) it was 2771 µM; in data set [1] (24 h), 2440 µM; in data set [1] (36 h), 2195 µM; in data set [1] (48 h), 2031 µM. For the same compound, the “Concentration over Time” value worked out at 1912 µM in data set [1] (60 h); 1797 µM in data set [1] (72 h); 1686 µM in data set [1] (84 h); 1643 µM in data set [1] (96 h); 1535 µM in data set [1] (120 h). Further, the “aqueous stability compared with compound (1)” value in data set [1] (pH 8) is recorded as “slightly improved”. The “pseudo-first order rate constant compared with compound (1)” value in data set [1] (pH 8) is given as “more than halving”. For the same compound, the ln of concentration in data set [1] (0 h) is on record as 1.185; in data set [1] (6 h), 1.099; in data set [1] (12 h) it was 1.019; in data set [1] (24 h), 0.8921; in data set [1] (36 h) it was 0.786; in data set [1] (48 h), 0.7086. The ln of concentration in data set [1] (60 h) is 0.6483; in data set [1] (72 h), 0.586; in data set [1] (84 h) it was 0.5221; in data set [1] (96 h) it was 0.4967; in data set [1] (120 h), 0.4287. In addition, the IC50 at Rat GABAA Ion Channel was 9.2 µM and 9 µM. For the same compound, the inhibitory constant (Ki) at Rat GABAA Ion Channel came to 8.2 µM.
Turning to `C=C(C)C1C2OC(=O)C1C1(O)C[C@H]3O[C@]34C(=O)OC2C14C` (single isomer, unassigned; (-)) [compound 1, (−)-picrotoxinin], the “Concentration over Time” value was determined as 3420 µM in data set [1] (0 h); 3257 µM in data set [1] (6 h); 2974 µM in data set [1] (12 h); 2124 µM in data set [1] (24 h); 1879 µM in data set [1] (36 h); 1413 µM in data set [1] (48 h). Also, the “Concentration over Time” value in data set [1] (60 h) was 1281 µM; in data set [1] (72 h), 1167 µM; in data set [1] (84 h), 914.4 µM; in data set [1] (96 h), 775.5 µM; in data set [1] (120 h), 529.4 µM. Besides, the ln of concentration turned out to be 1.23 in data set [1] (0 h); 1.181 in data set [1] (6 h); 1.09 in data set [1] (12 h); 0.7534 in data set [1] (24 h); 0.6308 in data set [1] (36 h); 0.3459 in data set [1] (48 h). Besides, the ln of concentration is reported as 0.2476 in data set [1] (60 h); 0.1546 in data set [1] (72 h); −0.08945 in data set [1] (84 h); −0.2542 in data set [1] (96 h); −0.636 in data set [1] (120 h). Also, the IC50 on Rat GABAA Ion Channel is 0.2 µM. The compound also registered a Ki on Rat GABAA Ion Channel of 0.2 µM.
With `C[C@@H]1CC[C@]23OC(=O)[C@@]4(O)O[C@H](C[C@@]124)[C@@]1(O)C(=O)OC[C@@]31C` [jiadifenolide], in the data set on mice, the convulsive signature entry is “no convulsive signature”.
